Reference: patent US12371454B2, “Cyclic peptide compound having Kras inhibitory action” (priority 2019, dated 2025)
Positions of bridges follow the written chain, without caps; N, C: chain ends. Non-standard residues stand in square brackets, D forms with d. Residues, ends and D or L forms follow the SMILES beside them. *: point of attachment. hPhe(3-Cl-4-CF3) = N[C@@H](CCc1ccc(C(F)(F)F)c(Cl)c1)C(=O)O; hPhe(4-CF3) = N[C@@H](CCc1ccc(C(F)(F)F)cc1)C(=O)O; NMePhe(4-Me) = CN[C@@H](Cc1ccc(C)cc1)C(=O)O; NMePhe(2-Cl) = CN[C@@H](Cc1ccccc1Cl)C(=O)O; NMePhe(4-F) = CN[C@@H](Cc1ccc(F)cc1)C(=O)O; Abu(4,4,4-F3) = N[C@@H](CC(F)(F)F)C(=O)O; NMehPhe = CN[C@@H](CCc1ccccc1)C(=O)O; NMeCha = CN[C@@H](CC1CCCCC1)C(=O)O; NEtLeu = CCN[C@@H](CC(C)C)C(=O)O; NMeChg = CN[C@H](C(=O)O)C1CCCCC1; NMeI = CC[C@H](C)[C@H](NC)C(=O)O; NMeD = CN[C@@H](CC(=O)O)C(=O)O; NMeL = CN[C@@H](CC(C)C)C(=O)O; NMeV = CN[C@H](C(=O)O)C(C)C; d(β3hA) = C[C@@H](N)CC(=O)O; NMeAbu = CC[C@H](NC)C(=O)O; NMeS = CN[C@@H](CO)C(=O)O; Morpholide = C1CN(*)CCO1; NMeA = CN[C@@H](C)C(=O)O; Piperidide = C1CCN(*)CC1; Pyrrolidide = C1CCN(*)C1; Ac5c = NC1(C(=O)O)CCCC1; Aze = O=C(O)[C@@H]1CCN1; CH2CMe2OH = CC(C)(O)C*; NEtG = CCNCC(=O)O; Sar = CNCC(=O)O

Columns and labels:
[1] = system: Human pancreatic cancer cell line AsPC-1; experiment: Measurement of AsPC-1 cell growth inhibition (AsPC-1 CGI); format: cell-based; conditions: 96 h
How it was run: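 AsPC-1 cells in 15% FBS RPMI-1640 were exposed to test compound for 96 hours at 37° C, with CellTiter-Glo as endpoint.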

[2] = biological target: T1, Kras and SOS1 (biotin-tagged human Kras loaded with GDP, His-tagged human SOS1) (Homo sapiens, UniProt P01116, G12D); experiment: Protein-protein interaction inhibition between Kras and SOS1 (KrasGl2D-SOS PPI) using AlphaScreen; format: binding; conditions: AlphaScreen; biotin-tagged human Kras loaded with GDP, His-tagged human SOS1; read-out: KRAS G12D-SOS PPI IC50
T1 construct: made in house; host or cells: E. coli (stated for Kras only)
How it was run: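 AlphaScreen format: Ni donor beads capture His-SOS1, streptavidin acceptor beads capture biotinylated Kras (E. coli-expressed, GDP-loaded post-purification). Excite 680 nm, read 520-620 nm.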

T1 sequence (P01116 1-188 isoform P01116-2 G12D): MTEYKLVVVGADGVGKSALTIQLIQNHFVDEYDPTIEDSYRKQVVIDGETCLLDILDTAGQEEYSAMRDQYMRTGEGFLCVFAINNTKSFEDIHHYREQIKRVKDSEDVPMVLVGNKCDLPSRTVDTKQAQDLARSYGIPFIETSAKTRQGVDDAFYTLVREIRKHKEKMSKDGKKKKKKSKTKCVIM

Q: Which IC50 [1] does the source give for `CC[C@H](C)[C@@H]1NC(=O)[C@H](CC(C)C)N(C)C(=O)C[C@@H](C(=O)N(C)C)N(C)C(=O)[C@H]([C@@H](C)CC)N(C)C(=O)C2(CCCC2)NC(=O)[C@H](Cc2ccccc2Cl)N(C)C(=O)[C@H](CCc2ccc(C(F)(F)F)c(Cl)c2)NC(=O)CN(C)C(=O)[C@H](Cc2ccc(C)cc2)N(C)C(=O)[C@@H]2CCN2C(=O)[C@H](C)N(C)C1=O` [Compound 216] ([NMeL]I[NMeA][Aze][NMePhe(4-Me)][Sar][hPhe(3-Cl-4-CF3)][NMePhe(2-Cl)][Ac5c][NMeI][NMeD]-NMe2; lactam N-11) here?
A: 100 to 500 nM

Q: What about the IC50 [2] of the same molecule?
A: 8 nM

Q: Which results are given for `CC[C@H](C)[C@@H]1NC(=O)[C@H](CC(C)C)N(C)C(=O)C[C@@H](C(=O)N2CCCCC2)N(C)C(=O)[C@H](C(C)C)N(C)C(=O)C2(CCCC2)NC(=O)[C@@H]2CCCN2C(=O)[C@H](CCc2ccc(C(F)(F)F)c(Cl)c2)NC(=O)CN(C)C(=O)[C@H](CC2CCCCC2)N(C)C(=O)[C@@H]2CCN2C(=O)[C@H](COCC(C)(C)O)N(C)C1=O` [Compound 86] ([NMeL]I[NMeS](CH2CMe2OH)[Aze][NMeCha][Sar][hPhe(3-Cl-4-CF3)]P[Ac5c][NMeV][NMeD]-Piperidide; lactam N-11)?
A: IC50 [1]: 100 to 500 nM; IC50 [2]: 9 nM

Q: What does the source list for `CC[C@H](C)[C@@H]1NC(=O)[C@H](CC(C)C)N(C)C(=O)C[C@@H](C)NC(=O)[C@H](C(C)C)N(C)C(=O)C2(CCCC2)NC(=O)[C@@H]2CCCN2C(=O)[C@H](CCc2ccc(C(F)(F)F)c(Cl)c2)NC(=O)CN(C)C(=O)[C@H](Cc2ccc(F)cc2)N(C)C(=O)CN(C)C(=O)CN(C)C1=O` [Compound 1602] (cyclo([Ac5c][NMeV][d(β3hA)][NMeL]I[Sar][Sar][NMePhe(4-F)][Sar][hPhe(3-Cl-4-CF3)]P))?
A: IC50 [1]: 100 to 500 nM; IC50 [2]: 6.3 nM

Q: Which results are given for `CC[C@H](C)[C@@H]1NC(=O)[C@H](CC(C)C)N(C)C(=O)C[C@@H](C(=O)N2CCCCC2)N(C)C(=O)[C@H](C(C)C)N(C)C(=O)C2(CCCC2)NC(=O)[C@@H]2CCCN2C(=O)[C@H](CCc2ccc(C(F)(F)F)c(Cl)c2)NC(=O)CN(C)C(=O)[C@H](CCc2ccccc2)N(C)C(=O)CN(C)C(=O)CN(C)C1=O` [Compound 1608] ([NMeL]I[Sar][Sar][NMehPhe][Sar][hPhe(3-Cl-4-CF3)]P[Ac5c][NMeV][NMeD]-Piperidide; lactam N-11)?
A: IC50 [1]: 100 to 500 nM; IC50 [2]: 5.8 nM

Q: Which IC50 [1] does the source give for `CC[C@H](C)[C@@H]1NC(=O)[C@H](CC)N(C)C(=O)C[C@@H](C(=O)N2CCOCC2)N(C)C(=O)[C@H](C2CCCCC2)N(C)C(=O)C2(CCCC2)NC(=O)[C@@H]2CCCN2C(=O)[C@H](CCc2ccc(C(F)(F)F)c(Cl)c2)NC(=O)CN(C)C(=O)[C@H](CC2CCCCC2)N(C)C(=O)CN(C)C(=O)CN(C)C1=O` [Compound 1915] ([NMeAbu]I[Sar][Sar][NMeCha][Sar][hPhe(3-Cl-4-CF3)]P[Ac5c][NMeChg][NMeD]-Morpholide; lactam N-11) here?
A: 50 to 100 nM

Q: What about the IC50 [2] of the same molecule?
A: 0.38 nM

Q: `CC[C@H](C)[C@@H]1NC(=O)[C@H](CO)N(C)C(=O)C[C@@H](C(=O)N2CCCCC2)N(C)C(=O)[C@H](C2CCCCC2)N(C)C(=O)C2(CCCC2)NC(=O)[C@@H]2CCCN2C(=O)[C@H](CCc2ccc(C(F)(F)F)c(Cl)c2)NC(=O)CN(C)C(=O)[C@H](CC2CCCCC2)N(C)C(=O)CN(C)C(=O)CN(C)C1=O` [Compound 1713] ([NMeS]I[Sar][Sar][NMeCha][Sar][hPhe(3-Cl-4-CF3)]P[Ac5c][NMeChg][NMeD]-Piperidide; lactam N-11) was tested. Which IC50 [1] did it give?
A: 100 to 500 nM

Q: And the IC50 [2]?
A: 0.49 nM

Q: For `CC[C@H](C)[C@@H]1NC(=O)[C@H](CC(C)C)N(C)C(=O)C[C@@H](C(=O)N2CCCC2)N(C)C(=O)[C@H](C2CCCCC2)N(C)C(=O)C2(CCCC2)NC(=O)[C@@H]2CCCN2C(=O)[C@H](CCc2ccc(C(F)(F)F)cc2)NC(=O)CN(C)C(=O)[C@H](CC2CCCCC2)N(C)C(=O)CN(C)C(=O)CN(C)C1=O` [Compound 1939] ([NMeL]I[Sar][Sar][NMeCha][Sar][hPhe(4-CF3)]P[Ac5c][NMeChg][NMeD]-Pyrrolidide; lactam N-11), which IC50 [1] is on record?
A: 100 to 500 nM

Q: What about the IC50 [2] of the same molecule?
A: 0.71 nM

Q: Which IC50 [1] does the source give for `CC[C@H](C)[C@@H]1NC(=O)[C@H](CC)N(C)C(=O)C[C@@H](C(=O)N2CCOCC2)N(C)C(=O)[C@H](C2CCCCC2)N(C)C(=O)C2(CCCC2)NC(=O)[C@@H]2CCCN2C(=O)[C@H](CCc2ccc(C(F)(F)F)c(Cl)c2)NC(=O)CN(C)C(=O)[C@H](Cc2ccc(C)cc2)N(C)C(=O)CN(C)C(=O)CN(C)C1=O` [Compound 1904] ([NMeAbu]I[Sar][Sar][NMePhe(4-Me)][Sar][hPhe(3-Cl-4-CF3)]P[Ac5c][NMeChg][NMeD]-Morpholide; lactam N-11) here?
A: 20 to 50 nM

Q: What about the IC50 [2] of the same molecule?
A: 0.57 nM

Q: Which IC50 [1] does the source give for `CC[C@H](C)[C@@H]1NC(=O)[C@H](C)N(C)C(=O)C[C@@H](C(=O)N2CCCCC2)N(C)C(=O)[C@H](C2CCCCC2)N(C)C(=O)C2(CCCC2)NC(=O)[C@@H]2CCCN2C(=O)[C@H](CCc2ccc(C(F)(F)F)c(Cl)c2)NC(=O)CN(C)C(=O)[C@H](CC2CCCCC2)N(C)C(=O)CN(C)C(=O)CN(C)C1=O` [Compound 1696] ([NMeA]I[Sar][Sar][NMeCha][Sar][hPhe(3-Cl-4-CF3)]P[Ac5c][NMeChg][NMeD]-Piperidide; lactam N-11) here?
A: 50 to 100 nM

Q: What about the IC50 [2] of the same molecule?
A: 0.57 nM

Q: Which results are given for `CC[C@H](C)[C@@H]1NC(=O)[C@H](CC(C)C)N(C)C(=O)C[C@@H](C(=O)N2CCOCC2)N(C)C(=O)[C@H](C(C)C)N(C)C(=O)C2(CCCC2)NC(=O)[C@@H]2CCCN2C(=O)[C@H](CCc2ccc(C(F)(F)F)c(Cl)c2)NC(=O)CN(C)C(=O)[C@H](CC2CCCCC2)N(C)C(=O)CN(C)C(=O)CN(C)C1=O` [Compound 1934] ([NMeL]I[Sar][Sar][NMeCha][Sar][hPhe(3-Cl-4-CF3)]P[Ac5c][NMeV][NMeD]-Morpholide; lactam N-11)?
A: IC50 [1]: 100 to 500 nM; IC50 [2]: 1 nM

Q: With `CC(C)C[C@H]1C(=O)N[C@@H](CC(F)(F)F)C(=O)N(C)CC(=O)N(C)CC(=O)N(C)[C@@H](CC2CCCCC2)C(=O)N(C)CC(=O)N[C@@H](CCc2ccc(C(F)(F)F)c(Cl)c2)C(=O)N2CCC[C@H]2C(=O)NC2(CCCC2)C(=O)N(C)[C@@H](C2CCCCC2)C(=O)N(C)[C@H](C(=O)N2CCCCC2)CC(=O)N1C` [Compound 1744] ([NMeL][Abu(4,4,4-F3)][Sar][Sar][NMeCha][Sar][hPhe(3-Cl-4-CF3)]P[Ac5c][NMeChg][NMeD]-Piperidide; lactam N-11) as the molecule, how does the IC50 [1] read?
A: 100 to 500 nM

Q: What about the IC50 [2] of the same molecule?
A: 4 nM

Q: For `CC[C@H](C)[C@@H]1NC(=O)[C@H](CC(C)C)N(C)C(=O)C[C@@H](C)NC(=O)[C@H](C(C)C)N(C)C(=O)C2(CCCC2)NC(=O)[C@@H]2CCCN2C(=O)[C@H](CCc2ccc(C(F)(F)F)c(Cl)c2)NC(=O)CN(CC)C(=O)[C@H](CC2CCCCC2)N(C)C(=O)CN(C)C(=O)CN(C)C1=O` [Compound 395] (cyclo([Ac5c][NMeV][d(β3hA)][NMeL]I[Sar][Sar][NMeCha][NEtG][hPhe(3-Cl-4-CF3)]P)), which IC50 [1] is on record?
A: 100 to 500 nM

Q: What about the IC50 [2] of the same molecule?
A: 47 nM

Q: What does the source list for `CC[C@H](C)[C@@H]1NC(=O)[C@H](CC(C)C)N(CC)C(=O)C[C@@H](C(=O)N2CCCCC2)N(C)C(=O)[C@H](C2CCCCC2)N(C)C(=O)C2(CCCC2)NC(=O)[C@@H]2CCCN2C(=O)[C@H](CCc2ccc(C(F)(F)F)c(Cl)c2)NC(=O)CN(C)C(=O)[C@H](CC2CCCCC2)N(C)C(=O)CN(C)C(=O)CN(C)C1=O` [Compound 137] ([NEtLeu]I[Sar][Sar][NMeCha][Sar][hPhe(3-Cl-4-CF3)]P[Ac5c][NMeChg][NMeD]-Piperidide; lactam N-11)?
A: IC50 [1]: 50 to 100 nM; IC50 [2]: 0.76 nM
